Source: patent publication US20050221328A1, “Inhibitors of inflammatory gene activity and cholesterol biosynthesis” (Wyeth, priority 2002, published 2005)

Assays:
[1] = tested on: hepatic inflammatory gene expression
Description: Ovariectornized C57BL/6 mice (16-20g) (Taconic) were separated into groups of 8. After 5-7 days of recuperation, the mice were fed a casein based diet (#8117, Test Diet, Richmond, IN) for five days. […] At the end of the experimental period, the liver was collected for RNA analysis.
Liver total RNA was prepared using Trizol reagent (BRL) and quantitated by real time RT-PCR using an ABI PRISM 7700 Detection System according to the manufacturer's protocol (Applied Biosystem). The data was analyzed using the Sequence Dector v1.7 software (Applied Biosystems) and normalized to GAPDH using Applied Biosystems primer set.
Feeding C57BL/6 mice a high fat diet containing cholate has been shown previously to induce inflammatory gene expression in the mouse liver after 3-5 weeks (Liao et al '93 JCI 91:2572, Evans et al. '01 Circ Res 89:823 & Miyake et al '00 JBC 275:21805).
To determine whether signaling via FXR was necessary to result in inflammatory gene expression, 1% UDCA was supplemented into the chow diet.
In particular, referring to FIG. 21a-d, C57BL/6 mice were fed either a chow, atherogenic or high fat diet (atherogenic diet without sodium cholate) as indicated. After 5 weeks, hepatic mRNA levels of the indicated genes were determined by real time PCR. […] After 5 days, hepatic mRNA levels of the indicated genes were determined by real time PCR. Data are reported as mean±SEM for each group. Referring to FIG. 23a-b: C57BL/6 mice were fed a chow diet supplemented with 1% ursodeoxycholic acid (UDCA). After 5 days, hepatic mRNA levels of the indicated genes were determined by real time PCR. […] Data are reported as mean±SEM for each group.

[2] = tested on: HepG2 cells; test: Gene expression in HepG2 cells treated 24 hr with CDCA or GW 4064; format: cell-based, human; settings: HepG2, 24 hr
Description: HepG2 cells were maintained in growth media at 37° C. in a 5% CO2 incubator. The cells were seeded in deficient growth media (phenol red free DMEM (Gibco BRL) supplemented with heat-inactivated 10% FBS, 1% Glutamax, 1% MEM non-essential amino acids, 100 U/ml penicillin and 100 μg/ml streptomycin) at 4-5×10^5 cells per well in a 6 well dish (Falcon). The cells were then placed into serum deficient media for 24 hr before addition of the compounds for an additional 24 hrs. The cells were then harvested for RNA analysis.
To further investigate the possibility that bile acid signaling through FXR can promote inflammatory gene expression, experiments were conducted in the hepatocyte cell line, HepG2. […] HepG2 cells express a number of inflammatory genes including ICAM-1 and M-CSF constitutively (Stonans et al '99 Cytokine 11:151). […] As positive controls, the induction of SHP mRNA and the repression of cyp7a were confirmed.
Referring to FIG. 24a-b, HepG2 cells were treated for 24 hr with increasing concentrations of chenodeoxycholic acid (CDCA). […] Data are reported as mean±SEM for each group. C57BL/6 mice. […] Data are reported as mean±SEM for each group.

[3] = tested on: SHP; test: Regulation of SHP expression in mouse liver, six weeks treatment, real time PCR; format: in vivo
Description: Several experiments were conducted to investigate the regulation of SHP expression, as follows. Referring to FIG. 9, ERα regulation of SHP expression in mouse liver was studied. […] Liver expression of SHP was monitored by real time PCR, with normalization for GAPDH expression. […] ICI182780 inhibited this induction.

[4] = tested on: human SHP promoter; test: hSHP promoter luciferase reporter in HepG2 or 293 cells cotransfected with human ERα; format: cell-based; settings: 293 cells with human ERα; for SHP promoter activity, compound alone: 10 nM E2 or 1 uM compound, 24 hours
Description: Referring to FIGS. 11a and 11b, ERα regulation of hSHP promoter activity in human cells was examined. Human HepG2 or 293 cells were cotransfected with a control SV40 driven β-galactosidase plasmid, a luceriferase plasmid driven by 1.4 kb of the human SHP promoter, and an expression plasmid encoding either no protein or human ERα. […] Cell extracts were then analyzed for luciferase activity normalized for β-galactosidase activity.
Referring to FIGS. 12a, 12b, and 12c, ERα regulation of hSHP promoter activity in 293 cells was examined. Referring to FIGS. 12a and 12b, 293 cells were cotransfected with a control SV4O driven […] plasmid, a luceriferase plasmid driven by either 1.4 kb of the human SHP promoter or a synthetic 2×ERE/TK promoter, and an expression plasmid for human ERα. […] Cell extracts were then analyzed for luciferase activity with normalization for β-galaetosidase activity.

[5] = tested on: Fnk, JAB, LIX, bcl-3 and SHP; test: Liver expression of Fnk, JAB, LIX, bcl-3 and SHP by realtime PCR after estrogen receptor ligand pretreatment and IL-1β; settings: mice; 100 ug/kg/day EE, 1 or 10 mg/kg/day E2, 30 mg/kg/day genistein, 5 mg/kg/day raloxifene, 10 mg/kg/day ICI182780; plus IL-1β
Description: Referring to FIG. 3a, to distinguish these two mechanisms, the IL-1β fold induction of Fnk, JAB, LIX, and bcl-3 and the IL-1β fold repression of SHP was quantified in animals pretreated with vehicle (black bars) or 100 ug/kg/day EE (grey bars). Liver RNA levels of each gene (mean +/−SEM) were determined by realtime PCR of RNA from each individual animal.
Referring to FIGS. 4a, 4b, 4c, 4d and 4e, experiments were conducted to determine whether EE blocks IL-1β induction of gene expression by an estrogen receptor (ER) dependent mechanism. Estrogens can regulate gene expression by many mechanisms including ER independent pathways such as antioxidant mechanisms. […] Liver expression levels of Fnk, JAB, LIX, bcl-3 and SHP (mean +/−SEM) were determined by realtime PCR.
Referring to FIGS. 5a, 5b, 5c, 5d, and 5e, experiments were conducted to determine whether ERα is required for EE regulation of gene expression in the liver. To determine whether ERα or ERβ mediated the EE effects on IL-1β gene expression in the liver, C57BL/6 wild type mice, C57BL/6 ERαKO mice, or 129 ERβKO mice were pretreated with vehicle (black bars) or […] EE (gray bars) for 5 days followed by a 1 hour treatment with IL-1β. Liver expression levels of Fnk, JAB, LIX, bcl-3, and SHP (mean +/−SEM) were quantified by realtime PCR, with expression in animals receiving vehicle+PBS defined as 1.0.

[6] = CDCA 1-100 uM or GW 4064 1-1000 nM
[7] = C57BL/6 mice, chow with CA 0.01-1.0%, 5 days

In the case of `C[C@H](CCC(=O)O)[C@H]1CC[C@H]2[C@@H]3[C@@H](O)C[C@@H]4C[C@H](O)CC[C@]4(C)[C@H]3CC[C@]12C` [UDCA, ursodeoxycholic acid], the cyp3a expression ([1]; mouse, in vivo) is reported as “induced” and the cyp7a expression ([1]; mouse, in vivo) is reported as “repress”.

`C[C@H](CCC(=O)O)[C@H]1CC[C@H]2[C@@H]3[C@H](O)C[C@@H]4C[C@H](O)CC[C@]4(C)[C@H]3CC[C@]12C` [CDCA, chenodeoxycholic acid] was tested, and the ICAM-1 expression [2, 6] was “induced in a dose dependent manner”, the M-CSF expression [2, 6] was “induced in a dose dependent manner” and the “SHP mRNA” value ([2]; positive control) was “induction”. For the same compound, the cyp7a expression ([2]; positive control) was “repression”.

In the case of `C[C@H](CCC(=O)O)[C@H]1CC[C@H]2[C@@H]3[C@H](O)C[C@@H]4C[C@H](O)CC[C@]4(C)[C@H]3C[C@H](O)[C@]12C` [CA, cholic acid], the “hepatic ICAM-1 mRNA” value [1, 7] is reported as “dose dependent induction”, the “induction of hepatic RANTES mRNA” value [1, 7] is reported as 1.75 fold and the “induction of hepatic TNFα mRNA” value [1, 7] is reported as 4 fold. The “induction of hepatic VCAM-1 mRNA” value [1, 7] was 3 fold, the “CA supplementation sufficient to induce inflammatory gene expression” value ([1]; chow fed mice, acute exposure) was 0.3% and the “induction of hepatic SHP expression” value ([1]; mice fed 1% CA or UDCA, 5 days) was “only observed with CA”.

With `CC/C(=C(\c1ccccc1)c1ccc(OCCN(C)C)cc1)c1ccccc1` [tamoxifen] the “liver SHP mRNA levels, WT animals” value ([3]; ovariectomized wildtype mice, sc six weeks, 10 ug/kg/day E2, 5 mg/kg/day tamoxifen, 5 mg/kg/day PPT) was “induced” and the “SHP promoter activity, compound alone” value [4] was “stimulated”.

For `C[C@]12CC[C@@H]3c4ccc(O)cc4C[C@@H](CCCCCCCCC[S+]([O-])CCCC(F)(F)C(F)(F)F)[C@H]3[C@@H]1CC[C@@H]2O` (stereo partly drawn) [ICI-182780], the “effect on regulation of liver Fnk, JAB, LIX, bcl-3 and SHP expression vs IL-1β alone” value [5] was “no effect”, the “effect on E2 induction of liver SHP mRNA” value ([3]; WT mice, 10 ug/kg/day E2+5 mg/kg/day ICI182780, six weeks) was “inhibited” and the “SHP promoter activity, compound alone” value [4] was “inactive alone”. The “effect on E2 activity at SHP promoter” value ([4]; 1 uM compound plus 10 nM E2) was “antagonized”.
